Several values for one entry are separate records, joined by “and”; a condition that tells them apart may be missing. Identical values can stand only once. Like-named read-outs stand apart in the source and are kept apart here.
Legend:
HCT 116 cells [1] = experiment: Cytotoxicity assay, HCT 116 colon cancer cells; assay type: cell-based, human; settings: for inhibition at 10 µM / inhibition at 100 µM / IC50: Homo sapiens, HCT-116, 48 h; for inhibition at 10 µM / inhibition at 100 µM: read-out: percentage inhibition of HCT 116 cells; for SI (selectivity index): IC50 CRL 1790 / IC50 HCT 116
Description: (§1) Evaluation of the cytotoxic properties of the compounds presented in Table 1, Table 2, Table 3 and Table 4 was undertaken using the procedure outlined in [7]. In brief, the HCT 116 cells were obtained from the ATCC and cultured in McCoy’s 5A medium. The CRL 1790 cells were obtained from the ATCC and cultured in Minimum Essential Medium. The MCF-7 and MDA-MBA-231 cells were obtained from the Saskatchewan Cancer Agency and cultured in DMEM. In each assay the culture medium was supplemented with 10% fetal bovine serum and 1% penicillin–streptomycin antibiotics. The time of the bioassays was 48 h, unless indicated otherwise. All determinations were carried out in triplicate on three different occasions.

MCF-7 cells = experiment: Cytotoxicity assay, MCF-7 breast cancer cells; assay type: cell-based, human; settings: for inhibition at 10 µM / inhibition at 100 µM / IC50: Homo sapiens, MCF7, 48 h; for inhibition at 10 µM / inhibition at 100 µM: read-out: percentage inhibition of MCF-7 cells; for IC50 / SI (selectivity index): Table 2; for IC50: read-out: Neoplastic Cells IC50, MCF-7; for SI (selectivity index): IC50 CRL 1790 / IC50 MCF-7
Description: as §1

MDA-MB-231 cells = experiment: Cytotoxicity assay, MDA-MB-231 breast cancer cells; assay type: cell-based, human; settings: for inhibition at 10 µM / inhibition at 100 µM / IC50: Homo sapiens, MDA-MB-231, 48 h; for inhibition at 10 µM / inhibition at 100 µM: read-out: percentage inhibition of MDA-MB-231 cells; for IC50 / SI (selectivity index): Table 2; for IC50: read-out: Neoplastic Cells IC50, MDA-MB-231; for SI (selectivity index): IC50 CRL 1790 / IC50 MDA-MB-231
Description: as §1

CRL 1790 cells = experiment: Cytotoxicity assay, non-malignant CRL 1790 colon cells; assay type: cell-based
Description: as §1

HCT 116 cells [2] = experiment: Chemosensitization of HCT 116 cells: 1m for 24 h, then 2a or 5-FU for a further 24 h; assay type: cell-based, human; settings: for Reduction in Live Cells % 2a (24 h): DMSO figure minus compound figure
Description: as §1
The next phase of the investigation was to determine whether a representative compound in series 1 chemosensitizes HCT 116 cells to a 3,5-bis(benzylidene)-4-piperidone 2a. […] The colon cancer cells were incubated for 24 h with 1m, and then 2a was added and the incubation was continued for a further 24 h. Different concentrations of both 1m and 2a were employed, and the results are presented as entries 1–12 in Table 3. In addition, the effects of each of 1m, 2a, and 5-FU on HCT 116 cells (which are necessary for the evaluation of whether chemosensitivity occurs) were recorded, and are presented as entries 13–20 in Table 3.
The concentration of 1m in combination 4 is 5 µM, which after 48 h causes a percentage reduction of live cells to 86% (DMSO figure after 48 h, line 20) minus 75% (48 h, line 13), or 11%.
The concentration of 2a in combination 4 is 0.2 µM. This combination leads to a reduction of the percentage of live cells to 91% (DMSO figure after 24 h, line 20) minus 69%, or 22%.
The percentage reduction in live cells caused by a combination of 1m (5 µM) and 2a (0.2 µM), in the absence of chemosensitization, is 11% plus 22%, or 33%.
However, the percentage reduction in cells as indicated on line 4 is 86% (DMSO figure after 48 h) minus 12% (line 4, 48 h figure), or 74%.

[3] = Table 4, read-out: IC50 HCT 116
[4] = Homo sapiens, 48 h, Table 4, read-out: IC50 CRL 1790
[5] = Table 2, read-out: Neoplastic Cells IC50, HCT 116

| SMILES | inhibition at 10 µM (HCT 116 cells [1]) [%] | inhibition at 100 µM (HCT 116 cells [1]) [%] | inhibition at 10 µM (MCF-7 cells) [%] | inhibition at 100 µM (MCF-7 cells) [%] | inhibition at 10 µM (MDA-MB-231 cells) [%] | inhibition at 100 µM (MDA-MB-231 cells) [%] | melting point [°C] | IC50 (HCT 116 cells [1]; [3]) [µM] | SI (selectivity index) (HCT 116 cells [1]; Table 4) | IC50 (CRL 1790 cells; [4]) [µM] | further results |
| --- | --- | --- | --- | --- | --- | --- | --- | --- | --- | --- | --- |
| C=CC(=O)NNC(=O)c1ccc(F)cc1 [1b, N^2-Acryloyl-4-fluorobenzohydrazide] | -2.35 ± 2.24 | 60.7 ± 3.22 | -40.1 ± 3.34 | 33.2 ± 3.13 | -7.37 ± 1.52 | 39.9 ± 2.51 |  |  |  |  |  |
| C=CC(=O)NNC(=O)c1ccc(Br)cc1 [1c, N^2-Acryloyl-4-bromobenzohydrazide] | -3.28 ± 1.5 | 87.9 ± 0.91 | -4.68 ± 3.17 | 46.6 ± 3.35 | -16.5 ± 1.45 | 88.7 ± 1.26 | 256 to 259 |  |  |  |  |
| C=CC(=O)NNC(=O)c1ccccc1Cl [1e, N^2-Acryloyl-2-chlorobenzohydrazide] | 4.3 ± 1.38 | 75.7 ± 1.65 | 8.66 ± 1.81 | 75.8 ± 2.76 | -7.15 ± 2.29 | 91.9 ± 4.53 | 165 to 167 |  |  |  |  |
| C=CC(=O)NNC(=O)c1cccc(Cl)c1 [1f, N^2-Acryloyl-3-chlorobenzohydrazide] | 13.5 ± 1.79 | 95.7 ± 1.71 | -15.5 ± 3.38 | 85.9 ± 2.7 | 15.6 ± 3.14 | 98.7 ± 0.92 | 155 to 158 |  |  |  |  |
| C=CC(=O)NNC(=O)c1ccc(Cl)c(Cl)c1 [1g, N^2-Acryloyl-3,4-dichlorobenzohydrazide] | 6.72 ± 1.97 | > 100 | -50.5 ± 3.27 | 97.4 ± 2.6 | -19.4 ± 3.01 | 139.8 ± 1.03 | 172 to 175 |  |  |  |  |
| C=CC(=O)NNC(=O)c1cccc(C)c1 [1i, N^2-Acryloyl-3-methylbenzohydrazide] | 15.4 ± 2.13 | 93.9 ± 3.35 | -82.8 ± 3.48 | 44.2 ± 2.96 | -5.91 ± 3.86 | 53.3 ± 2.89 | 138 to 140 |  |  |  |  |
| O=C1C(=Cc2ccccc2)CNCC1=Cc1ccccc1 [2a, 3,5-bis(benzylidene)-4-piperidone] |  |  |  |  |  |  |  | 0.37 ± 0.06 | 36.4 | 13.5 ± 1.99 | Reduction in Live Cells % 2a (24 h) (HCT 116 cells [2]; 2a 0.1 µM alone, 24 h): 8%; Reduction in Live Cells % 2a (24 h) (HCT 116 cells [2]; 2a 0.2 µM alone, 24 h): 22%; Reduction in Live Cells % 2a (24 h) (HCT 116 cells [2]; 2a 0.4 µM alone, 24 h): 43%; Live Cells % (HCT 116 cells [2]; entry 16: 2a 0.1 µM alone, 24 h): 83 ± 2.28%; Live Cells % (HCT 116 cells [2]; entry 16: 2a 0.1 µM alone, 48 h): 78 ± 2.12%; Live Cells % (HCT 116 cells [2]; entry 17: 2a 0.2 µM alone, 24 h): 69% and 69 ± 1.38%; Live Cells % (HCT 116 cells [2]; entry 17: 2a 0.2 µM alone, 48 h): 52 ± 1.15%; Live Cells % (HCT 116 cells [2]; entry 18: 2a 0.4 µM alone, 24 h): 48 ± 1.20%; Live Cells % (HCT 116 cells [2]; entry 18: 2a 0.4 µM alone, 48 h): 32 ± 1.50% |
| O=c1[nH]cc(F)c(=O)[nH]1 [5-FU, 5-fluorouracil, reference compound] | 84.7 ± 2.53 | 94.1 ± 0.96 | 91.2 ± 3.03 | 99.3 ± 2.87 | 17.4 ± 2.97 | > 100 |  | 4.11 ± 0.22 | 2.64 | 10.8 ± 1.64 | IC50 (HCT 116 cells [1]; [5]): 3.77 ± 0.48 µM; SI (selectivity index) (HCT 116 cells [1]; Table 2): 2.92; IC50 (MCF-7 cells): 2 ± 0.25 µM; SI (selectivity index) (MCF-7 cells): 5.42; IC50 (MDA-MB-231 cells): 15.9 ± 1.65 µM; SI (selectivity index) (MDA-MB-231 cells): 0.68; IC50 (CRL 1790 cells; Homo sapiens, 48 h, Table 2, read-out: Non-Malignant CRL 1790 Cells IC50): 10.8 ± 1.64 µM; Reduction in Live Cells % 2a (24 h) (HCT 116 cells [2]; 5-FU 3 µM alone, 24 h): 13%; Live Cells % (HCT 116 cells [2]; entry 19: 5-FU 3 µM alone, 24 h): 78 ± 2.44%; Live Cells % (HCT 116 cells [2]; entry 19: 5-FU 3 µM alone, 48 h): 55 ± 1.37% |
| CC(=O)NNC(=O)c1ccccc1 [6b, N^2-Acetylbenzohydrazide] | -4.89 ± 2.52 | 13.6 ± 3.03 | -93.8 ± 4.15 | -58.7 ± 3.24 | -22.6 ± 2.65 | -15.3 ± 3.46 | 171 to 172 |  |  |  |  |
| O=C(CCNNC(=O)c1ccccc1)NNC(=O)c1ccccc1 [6c, N^2-[3-(Benzoylaminoamino)-1-oxopropyl]-N^1-benzoylhydrazine] | 18.6 ± 3.98 | 96.9 ± 1.86 | 16.1 ± 3.55 | 97.9 ± 2.68 | -16 ± 2.91 | 95.6 ± 4.22 | 193 to 195 |  |  |  |  |
| COc1ccc(C(=O)NNC(=O)CCN2CC(=Cc3ccccc3)C(=O)C(=Cc3ccccc3)C2)cc1OC [7b, 3,5-Bis(benzylidene)-1-[3-(3,4-dimethoxylphenylcarbonylaminoamino)-3-oxo-1-propyl]-4-piperidone] |  |  |  |  |  |  | 151 to 154 | 3.15 ± 0.33 | 3.06 | 9.63 ± 1.62 | times more potent than 1m (HCT 116 cells [1]; ratio of IC50 values towards HCT 116 cells): 4.86 times |
| COc1ccc(C(=O)NNC(=O)CCN2CC(=Cc3ccc(Cl)cc3)C(=O)C(=Cc3ccc(Cl)cc3)C2)cc1OC [7c, 3,5-Bis(4-chlorobenzylidene)-1-[3-(3,4-dimethoxyphenylcarbonylaminoamino)-3-oxo-1-propyl]-4-piperidone] |  |  |  |  |  |  | 200 to 202 | 3.4 ± 0.01 | 3.60 | 12.2 ± 1.22 |  |
| N[C@@H](Cc1ccc(N(CCCl)CCCl)cc1)C(=O)O [Melphalan, reference compound] | 33.9 ± 1.81 | 98.7 ± 1.12 | > 100 | > 100 | 28.6 ± 2.48 | > 100 |  | 33.2 ± 1.7 | >3.02 |  | IC50 (HCT 116 cells [1]; [5]): 30.7 ± 2.73 µM; SI (selectivity index) (HCT 116 cells [1]; Table 2): >3.25; IC50 (MCF-7 cells): 12 ± 1.43 µM; SI (selectivity index) (MCF-7 cells): >8.32; IC50 (MDA-MB-231 cells): 52.9 ± 2.32 µM; SI (selectivity index) (MDA-MB-231 cells): >1.90; IC50 (CRL 1790 cells; Homo sapiens; Table 2; 48 h; read-out: Non-Malignant CRL 1790 Cells IC50): > 100 µM; IC50 (CRL 1790 cells; Homo sapiens; Table 4; 48 h; read-out: IC50 CRL 1790): > 100 µM |
